Source: US5908828A, “Synthetic peptide derivatives and the salts thereof” (Hoechst Japan Limited, priority 1994, dated 1999)
Bridge positions count the residues as written; N and C are the ends. Ends that are not written are not given here. I, II: the chains in the order shown.

System: ALPase activity in MC3T3-E1 cells promoted by rh-BMP-2
Experiment: Assay of BMP inhibiting activity (BMP-2 antagonist-like activity): ALPase activity in cultured MC3T3-E1 cells
Type: cell-based, mouse
Settings: for ALPase activity: MC3T3-E1 cells, 2 days
Protocol: BMP-2 antagonist-like activity of the present synthetic peptide derivatives was assayed by way of cultured MC3T3-E1 cells which were established from mouse calvaria having osteoblast-like property, by Kodama et al. (Kodama, H. et al. (1981) Jpn. J Oral. Biol., vol.23, p.899). The cultured MC3T3-E1 cells were prepared according to Takuwa et al. (Takuwa, Y. et al., (1991) Biochem.
Biophys. Res. Comuni., vol. […] ALPase is often used as an indicator enzyme for differentiation and maturity of osteoblasts and chondrocytes (Pfeilschifter, J., et al., Endocrinology (1987), vol. 121, p212-218; Rodan, G. A., et al., calcium regulating hormones and bone metabolism, Elsevir Science Publishers B.V., (1992), p 183-196).

How did the “inhibition of rh-BMP-2-promoted ALPase activity in MC3T3-E1 cells” value (2×10^-9 to 2×10^-6 M, result in words) turn out when “synthetic peptide derivative: Fragment P1 (SEQ ID NO:1, N-terminal acetyl-Cys) joined to Fragment P2 (SEQ ID NO:2) through a 4-(N-maleimidomethyl)cyclohexane-1-carbonyl linker (chain 1 {CH2CO}-CDFSDVGWNDWIVAPPGY; chain 2 AIVQTLVNSVNSKIPKA; thioether I:N-II:N via 4‑(N-maleimidomethyl)cyclohexane‑1‑carbonyl; not fully specified (N-terminus, C-terminus, bridges))” was run?
Its value is “inhibited ALPase activity in MC3T3-E1 cells which were promoted by rh-BMP-2 with 2×10^-9 to 2×10^-6 M dose dependently”.

What about the ALPase activity (rh-BMP-2 5 ng/ml + synthetic peptide derivative 2 × 10^-7 M, n = 4) of the same substance?
The ALPase activity was 302 ± 54 pmol/min.

And the ALPase activity (rh-BMP-2 5 ng/ml + synthetic peptide derivative 2 × 10^-8 M, n = 4)?
Its ALPase activity is 486 ± 36 pmol/min.

What about the ALPase activity (rh-BMP-2 5 ng/ml + synthetic peptide derivative 2 × 10^-9 M, n = 4) of the same substance?
Its ALPase activity is 632 ± 71 pmol/min.

And the ALPase activity (rh-BMP-2 5 ng/ml + synthetic peptide derivative 2 × 10^-10 M, n = 4)?
The ALPase activity was 876 ± 120 pmol/min.

What about the ALPase activity (rh-BMP-2 (b ng/ml) + synthetic peptide derivative 2 × 10^-6 M, n = 1) of the same substance?
Its ALPase activity is 269 pmol/min.
